Measurements: patent publication US7803816B2, “MCH receptor antagonists” (Hoffmann-La Roche Inc., priority 2005, dated 2010)
Where a name gives a salt, the structure may show the parent alone.

biological target: T1, recombinant human MCHR1-receptors (Homo sapiens, UniProt Q99705); experiment: MCHR filter binding assay (competition binding); conditions: membranes from CHO-K1 cells expressing human MCHR1; 0.2 nM [Phe13,[125I]Tyr19]-MCH; read-out: IC50 (nM), in vitro activity (binding assay)
T1 construct: expressed in transfected cells
Description: MCHR Filter Binding Assay
Competition binding assays were performed using membranes from CHO-K1 cells stably expressing the recombinant human MCHR1-receptors. Binding reactions (90 μl, final volume) were carried out at rt by incubating 2.8 μg membranes with 0.2 nM [Phe^13,[^125I]Tyr^19]-MCH (PerkinElmer) in the absence or presence of various concentrations of competing ligands in binding buffer (50 mM HEPES, 2.5 mM CaCl2, 0.05 mM BSA, 1 mM phenanthroline, 0.03 mM Triton X-100). [Phe^13,[^125I]Tyr^19]-MCH was added 15 min following the addition of unlabeled competing ligands, and the reactions incubated for a 1 h period. The reactions were terminated by rapid filtration over pretreated 96-well filter plates (Millipore; MultiScreen 0.65 μm GFB filter plates). Filter Plates were treated for 12 h at 4° C. with a 0.5% polyvinylpyrrolidone solution containing 1% BSA and 0.1% Tween 20, and then washed with an ice-cold solution of 10 mM Tris, pH 7.5 (5×200 μl). The plates were drained following a 5 min incubation with binding buffer (200 μl) at rt. Following termination of the binding reactions, the filters were washed with ice-cold binding buffer (4×200 μl). The filter plates were air dried for 30 min, scintillation cocktail (60 μl) added to each well and radioactivity bound to the plates was determined using a Micro-beta plate reader (Wallace/PerkinElmer).

T1 sequence (Q99705 whole entry): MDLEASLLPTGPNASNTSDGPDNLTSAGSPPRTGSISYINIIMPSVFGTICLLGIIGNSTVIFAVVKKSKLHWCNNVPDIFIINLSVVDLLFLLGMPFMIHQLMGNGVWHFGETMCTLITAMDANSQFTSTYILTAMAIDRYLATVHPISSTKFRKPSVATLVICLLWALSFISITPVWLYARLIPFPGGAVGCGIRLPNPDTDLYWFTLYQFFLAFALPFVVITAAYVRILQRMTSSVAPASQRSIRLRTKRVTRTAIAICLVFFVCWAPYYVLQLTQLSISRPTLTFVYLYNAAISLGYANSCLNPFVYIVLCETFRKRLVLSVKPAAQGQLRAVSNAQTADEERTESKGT

Row | Compound | IC50
1 | CO[C@@H]1CN(CC2Cc3ccc(C(C)C)cc3C2)CC[C@H]1n1c(C)nc2cc(C)ccc21 (stereo partly drawn) [Example 104, 1-[(3R,4R)-1-(5-Isopropyl-indan-2-ylmethyl)-3-methoxy-piperidin-4-yl]-2,5-dimethyl-1H-benzoimidazole] | 200 to 5000 nM
2 | CO[C@@H]1CN(C[C@@H]2Cc3ccc(Cl)cc3C2)CC[C@H]1n1c(C(C)(C)O)nc2cc(C)ccc21 [Example 113, 2-{1-[(3R,4R)-1-((R)-5-Chloro-indan-2-ylmethyl)-3-methoxy-piperidin-4-yl]-5-methyl-1H-benzoimidazol-2-yl}-propan-2-ol] | < 20 nM
3 | Cc1ccc2c(c1)nc(C(C)(C)C)n2C1CCN(C[C@@H]2Cc3ccc(NC(=O)C(C)C)cc3C2)CC1 [Example 41, N-{(R)-2-[4-(2-tert-Butyl-5-methyl-benzoimidazol-1-yl)-piperidin-1-ylmethyl]-indan-5-yl}-isobutyramide] | < 20 nM
4 | CO[C@H]1CN(C[C@@H]2Cc3ccc(Br)cc3C2)CC[C@@H]1n1c(C(C)C)nc2cc(C)ccc21 [Example 90, 1-[(3S,4S)-1-((R)-5-Bromo-indan-2-ylmethyl)-3-methoxy-piperidin-4-yl]-2-isopropyl-5-methyl-1H-benzoimidazole] | 200 to 5000 nM
5 | Cc1ccc2c(c1)nc(C(C)C)n2[C@@H]1CCN(CC2Cc3ccc(NC(=O)C4CC4)cc3C2)C[C@H]1O (stereo in doubt) [Example 2, Cyclopropanecarboxylic acid {(R)-2-[(3R,4R)-3-hydroxy-4-(2-isopropyl-5-methyl-benzoimidazol-1-yl)-piperidin-1-ylmethyl]-indan-5-yl}-amide] | 20 to 200 nM
6 | N-{(R)-2-[(3R,4R)-4-(2,5-Dimethyl-benzoimidazol-1-yl)-3-methoxy-piperidine-1-carbonyl]-indan-5-yl}-isobutyramide [Example 57] | 200 to 5000 nM
7 | CO[C@H]1CN(CC2Cc3cc(F)c(F)cc3C2)CC[C@@H]1n1c(C)nc2cc(C)ccc21 [Example 101, 1-[(3S,4S)-1-(5,6-Difluoro-indan-2-ylmethyl)-3-methoxy-piperidin-4-yl]-2,5-dimethyl-1H-benzoimidazole] | 20 to 200 nM
8 | COC1CN(C[C@H]2Cc3ccc(C#N)cc3C2)CC[C@H]1n1c(C(C)(C)O)nc2cc(C)ccc21 (stereo in doubt) [Example 120, (S)-2-{(3R,4R)-4-[2-(1-Hydroxy-1-methyl-ethyl)-5-methyl-benzoimidazol-1-yl]-3-methoxy-piperidin-1-ylmethyl}-indan-5-carbonitrile] | < 20 nM
9 | COC(=O)Nc1ccc2c(c1)C[C@H](CN1CCC(n3c(-c4ccccc4)nc4cc(C)ccc43)CC1)C2 [Example 42, {(R)-2-[4-(5-Methyl-2-phenyl-benzoimidazol-1-yl)-piperidin-1-ylmethyl]-indan-5-yl}-carbamic acid methyl ester] | < 20 nM
10 | Cc1ccc2c(c1)nc(C)n2C1CCN(CC2=Cc3ccc(NC(=O)C(C)C)cc3C2)CC1 [Example 53, N-{2-[4-(2,5-Dimethyl-benzoimidazol-1-yl)-piperidin-1-ylmethyl]-3H-inden-5-yl}-isobutyramide] | 20 to 200 nM
11 | CO[C@@H]1CN(CC2Cc3ccc(F)cc3C2)CC[C@H]1n1cnc2cc(C)ccc21 (stereo partly drawn) [Example 118, 1-[(3R,4R)-1-(5-Fluoro-indan-2-ylmethyl)-3-methoxy-piperidin-4-yl]-5-methyl-1H-benzoimidazole] | 200 to 5000 nM
12 | CO[C@@H]1CN(C[C@@H]2Cc3ccc(Br)cc3C2)CC[C@H]1n1c(C(C)C)nc2cc(C)ccc21 [Example 89, 1-[(3R,4R)-1-((R)-5-Bromo-indan-2-ylmethyl)-3-methoxy-piperidin-4-yl]-2-isopropyl-5-methyl-1H-benzoimidazole] | 20 to 200 nM
13 | CSC1CN(C[C@@H]2Cc3ccc(NC(=O)C(C)C)cc3C2)CCC1n1c(C)nc2cc(C)ccc21 (stereo partly drawn) [Example 22, N-{(R)-2-[4-(2,5-Dimethyl-benzoimidazol-1-yl)-3-methylsulfanyl-piperidin-1-ylmethyl]-indan-5-yl}-isobutyramide; dihydrochloride] | 20 to 200 nM
14 | Cc1ccc2c(c1)nc(Cl)n2C1CCN(C[C@@H]2Cc3ccc(N)cc3C2)CC1 [Example 31, (R)-2-[4-(2-Chloro-5-methyl-benzoimidazol-1-yl)-piperidin-1-ylmethyl]-indan-5-ylamine; dihydrochloride] | 200 to 5000 nM
15 | Cc1ccc2c(c1)nc(C(C)(C)O)n2[C@@H]1CCN(C[C@H]2Cc3ccc(Br)cc3C2)CC1O (stereo in doubt) [Example 122, (3R,4R)-1-((S)-5-Bromo-indan-2-ylmethyl)-4-[2-(1-hydroxy-1-methyl-ethyl)-5-methyl-benzoimidazol-1-yl]-piperidin-3-ol] | < 20 nM
16 | CO[C@H]1CN(C[C@H]2Cc3ccc(NC(=O)C(C)C)cc3C2)CC[C@@H]1n1c(C)nc2cc(C)ccc21 [Example 49, N-{(S)-2-[(3S,4S)-4-(2,5-Dimethyl-benzoimidazol-1-yl)-3-methoxy-piperidin-1-ylmethyl]-indan-5-yl}-isobutyramide] | 20 to 200 nM
17 | CCC(=O)Nc1ccc2c(c1)C[C@H](CN1CCC(n3c(C(C)C)nc4cc(C)ccc43)[C@@H](OC)C1)C2 (stereo in doubt) [Example 32, N-{(R)-2-[(3S,4S)-4-(2-Isopropyl-5-methyl-benzoimidazol-1-yl)-3-methoxy-piperidin-1-ylmethyl]-indan-5-yl}-propionamide] | < 20 nM
18 | CO[C@@H]1CN(CC2Cc3ccc(F)cc3C2)CC[C@H]1n1c(C)nc2cc(C)ccc21 (stereo partly drawn) [Example 20, 1-[(3R,4R)-1-(5-Fluoro-indan-2-ylmethyl)-3-methoxy-piperidin-4-yl]-2,5-dimethyl-1H-benzoimidazole] | 20 to 200 nM
19 | Cc1ccc2c(c1)nc(C)n2C1CCN(C[C@@H]2Cc3ccc(NC(=O)C(C)C)cc3C2)CC1 [Example 35, N-{(R)-2-[4-(2,5-Dimethyl-benzoimidazol-1-yl)-piperidin-1-ylmethyl]-indan-5-yl}-isobutyramide] | < 20 nM
20 | Cc1ccc2c(c1)CC(CN1CCC(n3c(C(C)(C)F)nc4cc(C)ccc43)CC1)C2 (stereo not drawn) [Example 105, 2-(1-Fluoro-1-methyl-ethyl)-5-methyl-1-[1-(5-methyl-indan-2-ylmethyl)-piperidin-4-yl]-1H-benzoimidazole] | 200 to 5000 nM
21 | CCC(=O)Nc1ccc2c(c1)C[C@H](CN1CC[C@@H](n3c(C)nc4cc(F)ccc43)[C@H](OC)C1)C2 [Example 25, N-{(R)-2-[(3R,4R)-4-(5-Fluoro-2-methyl-benzoimidazol-1-yl)-3-methoxy-piperidin-1-ylmethyl]-indan-5-yl}-propionamide; dihydrochloride] | 20 to 200 nM
22 | CO[C@H]1CN(C[C@H]2Cc3ccc(Br)cc3C2)CC[C@@H]1n1c(C)nc2cc(C)ccc21 [Example 91, 1-[(3S,4S)-1-((S)-5-Bromo-indan-2-ylmethyl)-3-methoxy-piperidin-4-yl]-2,5-dimethyl-1H-benzoimidazole; dihydrochloride] | 20 to 200 nM
23 | Cc1ccc2c(c1)nc(Cl)n2C1CCN(C[C@@H]2Cc3ccc(NC(=O)C4CC4)cc3C2)CC1 [Example 30, Cyclopropanecarboxylic acid {(R)-2-[4-(2-chloro-5-methyl-benzoimidazol-1-yl)-piperidin-1-ylmethyl]-indan-5-yl}-amide; dihydrochloride] | 200 to 5000 nM
24 | CO[C@@H]1CN(CC2Cc3ccccc3C2)CC[C@H]1n1c(C)nc2cc(C)ccc21 [Example 50, 1-((3R,4R)-1-Indan-2-ylmethyl-3-methoxy-piperidin-4-yl)-2,5-dimethyl-1H-benzoimidazole] | 20 to 200 nM
